Assay results published in PubChem BioAssay AID192 (DTP/NCI, 2004).
Toxic doses and inconclusive results are not listed.

Test system: BDF1 mice, B16 melanoma ip, median survival T/C
Experiment: NCI In Vivo Anticancer Drug Screen. Data for tumor model B16 Melanoma (intraperitoneal) in B6D2F1 (BDF1) mice
Conditions: endpoint: median survival time, higher = longer survival
Procedure, shortened: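 Mice with transplantable tumors; drug vs vehicle groups; endpoint survival or tumor size; value = T/C.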

[1] = dose: 100.0 mg/kg/injection, schedule: Q01DX009 (ip), vehicle: Klucel (hydroxypropylcellulose) (HPC)
[2] = dose: 25.0 mg/kg/injection, schedule: Q01DX009 (ip), vehicle: Klucel (hydroxypropylcellulose) (HPC)
[3] = dose: 50.0 mg/kg/injection, schedule: Q01DX009 (ip), vehicle: Klucel (hydroxypropylcellulose) (HPC)
[4] = dose: 50.0 mg/kg/injection, schedule: Q01DX009 (ip), vehicle: saline with Tween-80
[5] = dose: 100.0 mg/kg/injection, schedule: Q01DX009 (ip), vehicle: saline with Tween-80
[6] = dose: 0.78 mg/kg/injection, schedule: Q01DX009 (ip), vehicle: Klucel (hydroxypropylcellulose) (HPC)
[7] = dose: 1.56 mg/kg/injection, schedule: Q01DX009 (ip), vehicle: Klucel (hydroxypropylcellulose) (HPC)
[8] = dose: 3.12 mg/kg/injection, schedule: Q01DX009 (ip), vehicle: Klucel (hydroxypropylcellulose) (HPC)
[9] = dose: 6.25 mg/kg/injection, schedule: Q01DX009 (ip), vehicle: Klucel (hydroxypropylcellulose) (HPC)

CS(=O)(=O)[O-].CS(=O)(=O)[O-].NC1CCCCC1N.[Pt+4] (stereo not given)
T/C (dose: 0.62 mg/kg/injection, schedule: Q01DX009 (ip), vehicle: other): 124 % of control
T/C (dose: 1.25 mg/kg/injection, schedule: Q01DX009 (ip), vehicle: other): 159 % of control

CCCCNC(=O)Nc1cccc(C)c1C
T/C [1]: 88 % of control
T/C (dose: 400.0 mg/kg/injection, schedule: Q01DX009 (ip), vehicle: Klucel (hydroxypropylcellulose) (HPC)): 94 % of control

O=[N+]([O-])c1ccc(O)c(N=Cc2ccc(C=Nc3cc([N+](=O)[O-])ccc3O)cc2)c1
T/C (dose: 75.0 mg/kg/injection, schedule: Q01DX009 (ip), vehicle: Klucel (hydroxypropylcellulose) (HPC)): 89 % of control
T/C (dose: 150.0 mg/kg/injection, schedule: Q01DX009 (ip), vehicle: Klucel (hydroxypropylcellulose) (HPC)): 93 % of control

COC(=O)c1ccccc1NC(c1ccccn1)c1ccc2cccnc2c1O (stereo not given)
T/C [2]: 94 % of control
T/C [3]: 108 % of control
T/C [1]: 98 % of control

O=[N+]([O-])c1ccc2[nH]c(=S)sc2c1
T/C [2]: 97 % of control
T/C [3]: 100 % of control

COC(=O)/C=C/C=C(c1ccccc1)c1ccccc1
T/C [4]: 94 % of control
T/C [5]: 100 % of control
T/C (dose: 200.0 mg/kg/injection, schedule: Q01DX009 (ip), vehicle: saline with Tween-80): 94 % of control
T/C (dose: 400.0 mg/kg/injection, schedule: Q01DX009 (ip), vehicle: saline with Tween-80): 94 % of control

COc1cc2oc(=O)ccc2cc1[C@@H]1OC(=O)C2(C)O[C@@H]12 (stereo not given in full)
T/C (dose: 0.63 mg/kg/injection, schedule: Q01DX009 (ip), vehicle: distilled water + Tween-80): 103 % of control
T/C (dose: 1.25 mg/kg/injection, schedule: Q01DX009 (ip), vehicle: distilled water + Tween-80): 95 % of control
T/C (dose: 5.0 mg/kg/injection, schedule: Q01DX009 (ip), vehicle: distilled water + Tween-80): 102 % of control
T/C (dose: 10.0 mg/kg/injection, schedule: Q01DX009 (ip), vehicle: distilled water + Tween-80): 97 % of control

O=C1C(N2CCCC2)=C(N2CC2)C(=O)C(N2CCCC2)=C1N1CC1
T/C (dose: 0.25 mg/kg/injection, schedule: Q01DX009 (ip), vehicle: saline): 100 % of control
T/C (dose: 0.5 mg/kg/injection, schedule: Q01DX009 (ip), vehicle: saline): 114 % of control
T/C (dose: 1.0 mg/kg/injection, schedule: Q01DX009 (ip), vehicle: saline): 111 % of control
T/C (dose: 2.0 mg/kg/injection, schedule: Q01DX009 (ip), vehicle: saline): 118 % of control

COc1ccc(Cl)cc1N
T/C (dose: 25.0 mg/kg/injection, schedule: Q01DX009 (ip), vehicle: saline with Tween-80): 95 % of control
T/C [4]: 100 % of control
T/C [5]: 105 % of control

Cc1ncc(CO)c(CO)c1O
T/C (dose: 50.0 mg/kg/injection, schedule: Q01DX009 (ip), vehicle: saline): 100 % of control
T/C (dose: 50.0 mg/kg/injection, schedule: Q08HX018 (ip), vehicle: saline): 101 % of control
T/C (dose: 100.0 mg/kg/injection, schedule: Q01DX009 (ip), vehicle: saline): 100 % of control
T/C (dose: 100.0 mg/kg/injection, schedule: Q08HX018 (ip), vehicle: saline): 99 % of control
T/C (dose: 200.0 mg/kg/injection, schedule: Q01DX009 (ip), vehicle: saline): 100 % of control
T/C (dose: 200.0 mg/kg/injection, schedule: Q08HX018 (ip), vehicle: saline): 95 % of control
T/C (dose: 400.0 mg/kg/injection, schedule: Q01DX009 (ip), vehicle: saline): 91 % of control
T/C (dose: 400.0 mg/kg/injection, schedule: Q08HX018 (ip), vehicle: saline): 92 % of control
T/C (dose: 800.0 mg/kg/injection, schedule: Q01DX009 (ip), vehicle: saline): 87 % of control
T/C (dose: 800.0 mg/kg/injection, schedule: Q08HX018 (ip), vehicle: saline): 89 % of control

CCN(CC)C(=S)SSC(=S)N(CC)CC
T/C [6]: 110 % of control
T/C [7]: 86 % of control
T/C [8]: 97 % of control
T/C [9]: 105 % of control
T/C [2]: 92 % of control

O=C1OC(c2ccc([N+](=O)[O-])cc2)=N/C1=C\c1ccc(Cl)cc1
T/C [2]: 102 % of control
T/C [3]: 86 % of control

CCN(CC)C(=O)C1CN2CCc3cc(OC)c(OC)cc3C2CC1OC(C)=O (stereo not given)
T/C (dose: 0.39 mg/kg/injection, schedule: Q01DX009 (ip), vehicle: Klucel (hydroxypropylcellulose) (HPC)): 95 % of control
T/C [6]: 86 % of control
T/C [7]: 96 % of control
T/C [8]: 104 % of control
T/C [9]: 100 % of control
T/C [3]: 89 % of control
T/C [1]: 100 % of control
